For data set [1] the following is noted: cited from earlier work. From the text:
Following the validation of the present analytical method, the method was applied to estimate the pharmacokinetic profile of colistin in experimental rats. Choosing the animal species to perform the pharmacokinetic study was based on the similarity of colistin pharmacokinetic profile between animal species and humans. […] The species that has the closest pharmacokinetic profile to humans are rats[43]–[45]. […] This is because of a distribution phase that occurs before the decline in the colistin concentration. This finding is in agreement with previous reports[43],[44],[49]. In the present study, we observed that colistin concentration declined rapidly over 180–240 min which is consistent with earlier findings[45],[49]. […] In the present study, the Vd of colistin was 2.45 ± 1.30 L/kg in ...

Data set [2] is described as follows: in vivo. As to conditions: male, Sprague Dawley, rat, iv, 15 mg/kg.
Procedure: (§1) To 100 μl rat plasma sample, 5 μl of 500 μg/ml IS was added and followed by addition of 400 μl of 50:50 (v/v) methanol-TCA (10%). The samples were vortex-mixed for 1 min, rota-mixed for 10 min at 40 rpm and then centrifuged at 12,000 rpm for 10 min. Following centrifugation, 400 µl of the supernatant was collected and re-extracted with solid phase extraction (SPE) using SPE (Oasis HLB 1 cc, 30 mg) cartridges. First, the cartridges were conditioned with 500 μl of methanol then 500 μl of water. After that, 400 μl of the supernatant was transferred and then washed with 500 μl of water. The tubes were changed and then the samples were eluted with 150 μl of methanol: water: formic acid (80:19:1%, v/v/v) solution. The elution step was repeated twice, and then 250 μl of the solution was transferred to the low volume inserts and 20 μl of this solution was injected into the LC-MS system.
(§2) Male Sprague Dawley® (MSD) rats (21 weeks ± 3 days of age) with a body weight of 450–550 g [supplied by the Animal Resource Center (ARC), Health Sciences Center (HSC), Kuwait University] were used to estimate the pharmacokinetic profile of colistin. The animals (n = 8) were housed in 12 h/12 h light/dark cycle. […] All the animals were subjected to left jugular vein cannulation, IV drug administration, and subsequent blood sampling. All surgical procedures were carried out under strict aseptic conditions. In addition, all surgical instruments and materials were autoclaved, all solutions were sterile and the surgical procedure was performed with the aid of surgical microscope (Leica wild M690). Animal body temperatures were maintained around 37.6 °C (rectal) by placing the animals on an electronic heating pad throughout the surgical procedure as well as the post-surgical recovery period. About 350 µl of rat blood sample was collected from each animal. From this sample, 50 µl of blood sample was transferred to a capillary tube, sealed with the sealant clay at one end and centrifuged to calculate the Packed Cell Volume (PCV); i.e., Hematocrit. The remaining rat blood sample (300 µl) was centrifuged at 9000 X g for 10 min and aliquots of 100 µl of plasma sample was collected and stored at −70 °C pending analysis.
(§3) Colistin was quantified in the biological samples by the present LC-MS/MS method and then the pharmacokinetic parameters (t1/2, CL, Vd, AUC) were estimated by non-compartmental method employing Kinetica® software, version 5.1 (Thermo Fisher Scientific, Waltham, USA).
The conditions of data set [3]: cited from earlier work. As for the experimental part: However, colistin sulphate has been reported to be well absorbed after an oral administration in infants. […] The standards and quality control samples concentrations were selected based on the therapeutic range of colistin. The expected colistin serum levels according to the antimicrobial reference laboratory assay service are 5–15 mg/L and 2–4 mg/L for the peak and tough concentrations, respectively. […] Choosing the animal species to perform the pharmacokinetic study was based on the similarity of colistin pharmacokinetic profile between animal species and humans. […] The species that has the closest pharmacokinetic profile to humans are rats[43]–[45].
The source holds these as a separate data set.

Data set [4] in a line: Freeze-thaw stability of colistin in rat plasma QC samples. As to conditions: five freeze-thaw cycles, −70 °C to room temperature.
Procedure: (§4) Colistin sulfate was prepared by dissolving 5.5 mg of the powder in 5 ml water to make a stock solution of 1 mg/ml of colistin. PMB sulfate solution of 1 mg/ml was also prepared by dissolving 5.8 mg of PMB sulfate powder in 5 ml water. Both solutions were stored at −70 °C. Calibration standards and quality controls were prepared by spiking different amounts of colistin sulfate stock solution in plasma. Aliquots of colistin sulfate were further diluted to provide standard concentrations of 0.5, 1, 2, 5, 10, 15, and 20 μg/mL (equivalent to: 78, 156, 312, 780, 1560, 2340 and 3120 ng/ml of colistin A and 353, 706, 1412, 3350, 7060, 10590 and 14120 ng/ml of colistin B) whereas, the concentrations of 1.5, 3.5, 7.5 and 17.5 μg/mL (which contained 234, 546, 1170 and 2730 ng/ml of colistin A and 1059, 2471, 5295 and 12355 ng/ml of colistin B) were considered as quality controls. The calibration standards and quality controls were aliquoted (150 μL) into 0.5 ml Eppendorf tubes and stored at −70 °C pending analysis.
as §1
(§5) Various types of stability tests including freeze-thaw stability and long-term stability were assessed. The freeze-thaw stability test was performed by removing the four QC samples out of the storage temperature (−70 °C) and keeping them at room temperature (25 °C) until thawing and then aliquots of the samples were analyzed. After that, the samples were again returned back for freezing in the same storage conditions for 12 to 24 h. The freeze-thaw cycles were repeated five times and 4 replicates of the analytes were assayed. In addition, a long-term stability test was performed to ensure that the stability of the samples for a time that exceeds the interval between the first sample collection and the last sample analysis. Four aliquots of low, medium and high concentrations (QC) were kept for 20 days in the same temperature used to store samples regularly at the lab (−70 °C) then analyzed and compared to the nominal concentration of freshly prepared QC samples. Moreover, the stability in the autosampler (4 °C) was assessed by keeping the processed samples under this condition and assayed periodically at different times for up to 24 hours. In addition, benchtop stability test was performed by keeping the samples at room temperature (25 °C) for six hours and analyzing them during this time. The mean value results of stability tests were calculated and compared to the nominal concentrations.
Data set [5] in a line: Long-term stability of colistin in rat plasma QC samples at −70 °C. As to conditions: rat plasma, 20 days, LC-MS/MS.
Procedure: as §4, §1, §5
Data set [6] in a line: Autosampler stability of processed colistin rat plasma samples at 4 °C.
Procedure: as §4, §1, §5
A short description of data set [7]: Benchtop stability of colistin in rat plasma samples at room temperature. Particulars: rat plasma, stored for 6 hours at room temperature (25 °C), LC-MS/MS.
Procedure: as §4, §1, §5
A short description of data set [8]: Pharmacokinetic study of colistin in rats after IV colistin sulfate, plasma LC-MS/MS, non-compartmental analysis. Particulars: male, rat, 15 mg/kg, SD.
Procedure: as §1, §2, §3

SMILES strings stand for the structures. Entries after “also recorded” stand apart in the source; their conditions may differ. Where two headings read alike, the source gives them in different places. Positions of bridges follow the written chain, without caps; N, C: chain ends. Non-standard residues stand in square brackets, D forms with d. Residues, ends and D or L forms follow the SMILES beside them. *: point of attachment. Heptanoyl(6-Me) = CC(C)CCCCC(=O)*; X1 = CC[C@H](C)CCCCC(=O)*; Dab = NCC[C@H](N)C(=O)O

Consider `CC(C)CCCCC(=O)N[C@@H](CCN)C(=O)N[C@H](C(=O)N[C@@H](CCN)C(=O)N[C@H]1CCNC(=O)[C@H]([C@@H](C)O)NC(=O)[C@H](CCN)NC(=O)[C@H](CCN)NC(=O)[C@H](CC(C)C)NC(=O)[C@@H](CC(C)C)NC(=O)[C@H](CCN)NC1=O)[C@@H](C)O` [Colistin B, colistin B] ({Heptanoyl(6-Me)}-[Dab]T[Dab][Dab][Dab][dL]L[Dab][Dab]T; lactam 4-C), for which, in data set [1] (rat, in vivo), the “CL of the individual components” value is 0.183 ± 0.0372 L/h/kg and the “t1/2 of the major components” value is 1.52 ± 0.342 h. Further, the level at 0.5 h in data set [2] was 2.64 µg/mL.
As usually defined, the Vd is the apparent volume that relates the amount in the body to the concentration in plasma or blood. One may read the clearance as the rate of elimination divided by the concentration. By AUC(0-inf) is commonly meant total exposure, with the tail of the curve extrapolated. A high value points to more exposure. The term half-life denotes the time needed for the level to fall by half in the phase considered. A low value points to rapid decline. Regarding `CC[C@H](C)CCCCC(=O)N[C@@H](CCN)C(=O)N[C@H](C(=O)N[C@@H](CCN)C(=O)N[C@H]1CCNC(=O)[C@H]([C@@H](C)O)NC(=O)[C@H](CCN)NC(=O)[C@H](CCN)NC(=O)[C@H](CC(C)C)NC(=O)[C@@H](CC(C)C)NC(=O)[C@H](CCN)NC1=O)[C@@H](C)O` [colistin] (X1-[Dab]T[Dab][Dab][Dab][dL]L[Dab][Dab]T; lactam 4-C), in data set [3] (Markou and colleagues, steady state), the minimum concentration is listed as 1.03 ± 0.44 mg/L. The “maximum steady state concentration” value in data set [3] (Markou and colleagues) was 2.93 ± 1.24 mg/L. Moreover, the elimination half-life in data set [3] (colistin, eliminated extra-renally) was 3 h. Further, the Vd was 12.4 L in data set [3] (humans); 0.50 ± 0.06 L/kg in data set [1] (rats, earlier report); 0.496 ± 0.06 L/kg in data set [1] (rats); 2.45 ± 1.29 L/kg in data set [8] (Sprague Dawley). The t1/2 in data set [3] (humans) was 3 h; in data set [1] (rats, another study) it was 0.928 ± 0.322 h; in data set [1] (rats, dose ranging study, dose 15 mg/kg), 0.54 ± 0.0833 h; in data set [1] (rats), 1.24 ± 0.22 h. In addition, the “AUC0-∞” value in data set [1] (rats, mean ± S.D., other investigators, SD) is 2.6 ± 0.47 µg·h/mL. The “total body clearance (CL)” value in data set [1] (rats, reported by other investigators) is 0.702 ± 0.108 L/h/kg. For the same compound, the CLR in data set [1] (rats) was 0.312 ± 0.024 L/h/kg. Further, the “deviation of resulting concentrations from nominal after freeze-thaw” value in data set [4] (plasma samples) is at most 15%. Besides, in data set [4] (rat plasma, LC-MS/MS), the “freeze-thaw stability (in words)” value is “stable; also recorded: acceptable”. For the same compound, the “long-term stability (in words)” value in data set [5] was “stable; also recorded: acceptable”. Also, the “deviation of result at each level from nominal concentration in the autosampler” value in data set [6] (autosampler environment, 4 °C) is recorded as at most 15%. The “autosampler stability (in words)” value in data set [6] (processed samples, autosampler 4 °C, up to 24 hours, LC-MS/MS) was “stable; also recorded: acceptable”. Moreover, the “benchtop (room temperature) stability (in words)” value in data set [7] is listed as “in-stability”; in data set [7] (listed as Colistin), “not stable”. Besides, the clearance in data set [8] (Sprague Dawley (MSD)) was found to be 1.53 ± 0.636 L/h/kg. The compound further gave an AUC(0-inf) in data set [8] (Sprague Dawley) of 10.5 µg·h/mL. The half-life in data set [8] (Sprague Dawley) is 1.07 ± 0.605 h.

The values above are taken from paper PMC7234998, “Quantification of Colistin in Plasma by Liquid Chromatography-Tandem Mass Spectrometry: Application to a Pharmacokinetic Study” (Scientific Reports, 2020).
